Source: ChEMBL document CHEMBL1146115, “Synthesis and evaluation of novel heterocyclic inhibitors of GSK-3” (Bioorg Med Chem Lett, 2006)

Molecular target: Glycogen synthase kinase-3 (Homo sapiens, UniProt P49840+P49841)
Assay: Inhibition of GSK3
Format: protein assay

Row | Compound | Log IC50
1 | COc1cccc(-n2ccc3c(N/N=C/c4ccncc4)ncnc32)c1 | -7.5
2 | COc1cccc(-c2[nH]nc3c(N/N=C/c4ccncc4)ncnc23)c1 | -8.3
3 | COc1cccc(-n2ncc3c(N/N=C/c4ccncc4)ncnc32)c1 [GW784752X] | -8.2
4 | COc1cccc(-n2cnc3c(N/N=C/c4ccncc4)ncnc32)c1 [GW813360X] | -6.2

Next, values leading:

Row | Log IC50 | Compound
5 | -6.3 | COc1cccc(-c2cn(C)c3c(N/N=C/c4ccncc4)ncnc23)c1
6 | -8.3 | COc1cccc(-c2c[nH]c3c(N/N=C/c4ccncc4)ncnc23)c1 [GW814408X]
